One block for each compound: values may come before it. Calls of active or inactive are those of the source.
Columns and labels:
Assay type in all cases: functional
[1] = biological target: Melanin-concentrating hormone receptor 1 (Homo sapiens, UniProt Q99705); test: Late-stage fluorescence-based counterscreen for antagonists of the G-protein coupled receptor 7 (GPR7): cell-based dose response assay to identify antagonists of the melanin-concentrating hormone receptor 1 (MCHR1) Set 6.
[2] = biological target: T1, Neuropeptides B/W receptor type 1 (Homo sapiens, UniProt P48145); test: human NPBW1 receptor blockade, IC50 – cell-based, fluorescence, dose response, set 6, late-stage follow-up (AID 588583)
T1 sequence (P48145 whole entry): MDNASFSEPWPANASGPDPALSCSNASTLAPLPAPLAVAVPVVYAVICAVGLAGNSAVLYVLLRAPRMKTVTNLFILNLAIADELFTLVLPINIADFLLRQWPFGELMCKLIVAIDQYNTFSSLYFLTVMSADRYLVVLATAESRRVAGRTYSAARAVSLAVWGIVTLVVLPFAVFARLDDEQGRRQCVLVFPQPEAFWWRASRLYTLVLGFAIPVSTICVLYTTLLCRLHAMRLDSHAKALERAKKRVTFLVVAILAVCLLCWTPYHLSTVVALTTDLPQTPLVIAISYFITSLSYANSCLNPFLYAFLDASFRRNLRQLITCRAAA

[3] = biological target: cGMP-dependent protein kinase 1 (Homo sapiens, UniProt Q13976);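 further: value from a kinome panel screen with PRKG1 as the panel member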
[4] = biological target: RAC-gamma serine/threonine-protein kinase (Homo sapiens, UniProt Q9Y243)
[5] = biological target: Serine/threonine-protein kinase D2 (Homo sapiens, UniProt Q9BZL6);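 further: measured against PRKD2 as one member of a kinome-wide kinase profiling panel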
[6] = biological target: Serine/threonine-protein kinase pim-1 (Homo sapiens, UniProt P11309)
[7] = biological target: MAP kinase-activated protein kinase 5 (Homo sapiens, UniProt Q8IW41);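 further: measured as one member of a kinome panel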
[8] = biological target: Casein kinase I isoform alpha (Homo sapiens, UniProt P48729)
[9] = biological target: Homeodomain-interacting protein kinase 2 (Homo sapiens, UniProt Q9H2X6);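 further: measured within a kinome-wide kinase profiling panel, HIPK2 being one panel member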
[10] = biological target: Calcium/calmodulin-dependent protein kinase kinase 2 (Homo sapiens, UniProt Q96RR4); test: Navigating the Kinome. Panel member name: CAMKK2
[11] = biological target: Serine/threonine-protein kinase pim-3 (Homo sapiens, UniProt Q86V86);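 further: value obtained as one member of a broad kinase panel profiling effort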
[12] = biological target: Protein kinase C gamma type (Homo sapiens, UniProt P05129)
[13] = biological target: Casein kinase I isoform delta (Homo sapiens, UniProt P48730);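 further: measured as one member (CSNK1D) of a kinome panel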
[14] = biological target: Calcium/calmodulin-dependent protein kinase type II subunit beta (Homo sapiens, UniProt Q13554)
[15] = biological target: Dual specificity tyrosine-phosphorylation-regulated kinase 4 (Homo sapiens, UniProt Q9NR20)
[16] = biological target: Protein kinase C iota type (Homo sapiens, UniProt P41743);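 further: measured within a kinome-wide kinase panel, PRKCI as panel member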
[17] = biological target: Dual specificity tyrosine-phosphorylation-regulated kinase 1B (Homo sapiens, UniProt Q9Y463); test: Navigating the Kinome. Panel member name: DYRK1B
[18] = biological target: T2, cAMP-dependent protein kinase catalytic subunit PRKX (Homo sapiens, UniProt P51817)
T2 sequence (P51817 whole entry): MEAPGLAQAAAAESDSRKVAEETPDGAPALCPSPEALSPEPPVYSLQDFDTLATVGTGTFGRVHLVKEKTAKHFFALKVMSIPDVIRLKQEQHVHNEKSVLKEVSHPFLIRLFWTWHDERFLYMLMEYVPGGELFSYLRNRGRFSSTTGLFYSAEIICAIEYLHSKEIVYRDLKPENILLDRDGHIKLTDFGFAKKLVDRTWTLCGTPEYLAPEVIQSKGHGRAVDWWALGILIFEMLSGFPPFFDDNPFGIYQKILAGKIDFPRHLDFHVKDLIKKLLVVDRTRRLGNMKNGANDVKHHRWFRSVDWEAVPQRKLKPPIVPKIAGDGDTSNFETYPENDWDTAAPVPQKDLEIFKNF

[19] = biological target: RAC-alpha serine/threonine-protein kinase (Homo sapiens, UniProt P31749);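 further: AKT1 affinity measured as one member of a kinome-wide kinase profiling panel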
[20] = biological target: Serine/threonine-protein kinase pim-2 (Homo sapiens, UniProt Q9P1W9);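 further: value comes from a broad kinase panel profiling study in which PIM2 was one of the panel members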
[21] = biological target: Cyclin-dependent kinase 9 (Homo sapiens, UniProt P50750);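 further: value from the CDK9 entry of a kinome-spanning kinase panel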
[22] = biological target: Mitogen-activated protein kinase 14 (Homo sapiens, UniProt Q16539);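 further: part of a kinome-wide panel, MAPK14 entry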

Chain of Casein kinase I isoform delta (P48730 whole entry, canonical isoform): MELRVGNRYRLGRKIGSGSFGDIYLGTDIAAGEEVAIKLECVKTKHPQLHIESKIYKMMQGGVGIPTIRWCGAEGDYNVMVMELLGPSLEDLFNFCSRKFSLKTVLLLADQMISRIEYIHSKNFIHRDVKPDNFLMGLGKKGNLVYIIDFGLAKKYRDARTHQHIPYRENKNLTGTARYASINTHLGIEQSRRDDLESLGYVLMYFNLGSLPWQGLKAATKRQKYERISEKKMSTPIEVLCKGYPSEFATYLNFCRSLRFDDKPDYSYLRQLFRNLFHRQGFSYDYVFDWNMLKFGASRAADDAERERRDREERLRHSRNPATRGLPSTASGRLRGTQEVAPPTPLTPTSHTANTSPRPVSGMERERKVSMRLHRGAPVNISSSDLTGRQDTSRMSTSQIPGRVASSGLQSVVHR
Chain of MAP kinase-activated protein kinase 5 (Q8IW41 whole entry, canonical isoform): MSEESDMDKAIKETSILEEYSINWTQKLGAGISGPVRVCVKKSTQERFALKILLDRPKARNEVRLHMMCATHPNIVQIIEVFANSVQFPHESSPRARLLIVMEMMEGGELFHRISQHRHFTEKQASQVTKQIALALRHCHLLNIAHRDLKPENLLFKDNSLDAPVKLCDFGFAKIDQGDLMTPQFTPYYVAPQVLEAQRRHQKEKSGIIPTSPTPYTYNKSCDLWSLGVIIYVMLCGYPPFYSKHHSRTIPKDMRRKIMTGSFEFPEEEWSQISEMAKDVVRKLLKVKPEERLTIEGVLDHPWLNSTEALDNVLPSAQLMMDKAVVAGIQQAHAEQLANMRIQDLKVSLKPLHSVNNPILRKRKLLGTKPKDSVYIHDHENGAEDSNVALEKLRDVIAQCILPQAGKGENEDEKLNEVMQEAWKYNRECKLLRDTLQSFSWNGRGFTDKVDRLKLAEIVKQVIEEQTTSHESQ
Chain of Serine/threonine-protein kinase pim-2 (Q9P1W9 whole entry): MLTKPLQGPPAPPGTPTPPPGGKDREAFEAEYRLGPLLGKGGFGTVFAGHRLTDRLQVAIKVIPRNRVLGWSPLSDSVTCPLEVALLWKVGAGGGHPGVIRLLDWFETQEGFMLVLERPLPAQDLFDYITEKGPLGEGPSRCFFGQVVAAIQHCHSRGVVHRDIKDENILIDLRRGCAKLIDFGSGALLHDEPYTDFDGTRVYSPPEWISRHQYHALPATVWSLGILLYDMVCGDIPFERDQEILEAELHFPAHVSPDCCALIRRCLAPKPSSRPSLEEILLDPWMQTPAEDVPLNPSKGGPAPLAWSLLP
Chain of RAC-alpha serine/threonine-protein kinase (P31749 whole entry): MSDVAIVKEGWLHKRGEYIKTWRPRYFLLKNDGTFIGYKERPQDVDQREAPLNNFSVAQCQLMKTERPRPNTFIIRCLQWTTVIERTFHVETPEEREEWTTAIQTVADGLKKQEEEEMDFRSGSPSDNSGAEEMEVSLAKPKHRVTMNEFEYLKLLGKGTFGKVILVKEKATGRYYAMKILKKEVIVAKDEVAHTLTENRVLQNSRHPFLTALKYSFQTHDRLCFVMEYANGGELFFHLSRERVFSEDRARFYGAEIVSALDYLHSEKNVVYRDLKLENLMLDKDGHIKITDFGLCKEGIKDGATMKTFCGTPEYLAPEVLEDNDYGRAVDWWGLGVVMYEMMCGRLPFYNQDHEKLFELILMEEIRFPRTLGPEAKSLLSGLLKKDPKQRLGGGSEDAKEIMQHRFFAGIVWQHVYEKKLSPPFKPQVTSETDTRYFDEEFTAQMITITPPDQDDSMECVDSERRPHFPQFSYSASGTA
Chain of Homeodomain-interacting protein kinase 2 (Q9H2X6 whole entry): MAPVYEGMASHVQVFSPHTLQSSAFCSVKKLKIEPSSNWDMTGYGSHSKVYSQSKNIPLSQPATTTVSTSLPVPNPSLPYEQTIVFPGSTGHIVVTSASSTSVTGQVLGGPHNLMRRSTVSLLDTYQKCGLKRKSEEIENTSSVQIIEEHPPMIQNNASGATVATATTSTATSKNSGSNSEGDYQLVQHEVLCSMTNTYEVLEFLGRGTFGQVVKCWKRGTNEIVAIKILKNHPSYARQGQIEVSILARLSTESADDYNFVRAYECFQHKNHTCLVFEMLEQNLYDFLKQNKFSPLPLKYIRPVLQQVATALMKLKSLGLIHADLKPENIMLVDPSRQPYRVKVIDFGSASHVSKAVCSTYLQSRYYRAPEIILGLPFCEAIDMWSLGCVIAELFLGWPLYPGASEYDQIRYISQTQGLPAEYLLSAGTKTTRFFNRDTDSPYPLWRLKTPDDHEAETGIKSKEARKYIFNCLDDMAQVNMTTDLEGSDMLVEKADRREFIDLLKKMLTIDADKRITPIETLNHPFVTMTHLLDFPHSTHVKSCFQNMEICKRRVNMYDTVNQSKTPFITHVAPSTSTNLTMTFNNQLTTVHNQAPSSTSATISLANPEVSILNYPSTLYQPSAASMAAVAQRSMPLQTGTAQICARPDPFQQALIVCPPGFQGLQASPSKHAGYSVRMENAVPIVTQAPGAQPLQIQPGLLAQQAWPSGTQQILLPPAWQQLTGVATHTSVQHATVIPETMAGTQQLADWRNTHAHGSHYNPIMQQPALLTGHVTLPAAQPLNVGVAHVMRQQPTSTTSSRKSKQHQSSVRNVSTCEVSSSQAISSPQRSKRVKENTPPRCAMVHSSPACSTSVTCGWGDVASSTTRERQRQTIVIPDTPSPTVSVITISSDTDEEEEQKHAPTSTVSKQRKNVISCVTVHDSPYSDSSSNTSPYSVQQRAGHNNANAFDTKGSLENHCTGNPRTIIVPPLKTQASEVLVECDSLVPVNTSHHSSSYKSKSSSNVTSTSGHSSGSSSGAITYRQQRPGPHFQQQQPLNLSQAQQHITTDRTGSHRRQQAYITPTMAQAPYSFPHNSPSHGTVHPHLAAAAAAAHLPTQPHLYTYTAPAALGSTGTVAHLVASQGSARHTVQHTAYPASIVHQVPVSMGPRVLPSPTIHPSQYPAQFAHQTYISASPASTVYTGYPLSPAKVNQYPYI
Chain of Dual specificity tyrosine-phosphorylation-regulated kinase 4 (Q9NR20 whole entry): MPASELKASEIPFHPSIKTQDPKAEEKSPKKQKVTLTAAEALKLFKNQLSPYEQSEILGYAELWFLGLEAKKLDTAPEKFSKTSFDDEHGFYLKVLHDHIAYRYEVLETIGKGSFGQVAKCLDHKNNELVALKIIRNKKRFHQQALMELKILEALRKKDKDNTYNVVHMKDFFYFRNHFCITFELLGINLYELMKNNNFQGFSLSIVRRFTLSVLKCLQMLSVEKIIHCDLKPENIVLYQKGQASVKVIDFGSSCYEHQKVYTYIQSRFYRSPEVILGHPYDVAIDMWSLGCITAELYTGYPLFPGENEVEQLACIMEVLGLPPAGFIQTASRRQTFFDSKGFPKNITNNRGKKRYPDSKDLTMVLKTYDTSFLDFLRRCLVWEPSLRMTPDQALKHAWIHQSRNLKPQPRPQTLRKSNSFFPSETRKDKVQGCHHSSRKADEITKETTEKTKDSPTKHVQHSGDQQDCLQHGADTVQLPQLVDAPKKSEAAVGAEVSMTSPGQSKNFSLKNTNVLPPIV
Chain of Casein kinase I isoform alpha (P48729 whole entry, canonical isoform): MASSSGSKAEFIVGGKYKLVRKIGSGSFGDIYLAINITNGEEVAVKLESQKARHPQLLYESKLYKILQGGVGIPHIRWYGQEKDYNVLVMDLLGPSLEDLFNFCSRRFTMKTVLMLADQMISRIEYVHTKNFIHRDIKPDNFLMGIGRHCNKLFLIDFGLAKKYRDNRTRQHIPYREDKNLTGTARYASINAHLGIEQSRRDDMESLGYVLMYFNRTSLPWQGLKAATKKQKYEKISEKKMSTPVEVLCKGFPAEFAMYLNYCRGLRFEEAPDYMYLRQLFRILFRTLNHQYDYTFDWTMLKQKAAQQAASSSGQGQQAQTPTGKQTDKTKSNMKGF

- IC50 [1]: 699 nM (active)
- IC50 [2]: 699 nM (active)
SMILES: N#CC(c1ccc(C(F)(F)F)cc1)c1c(Cl)cnn(Cc2cccc3ccccc23)c1=O (configuration not stated)

- Ki [3]: > 2000 nM (inactive)
- Ki [4]: > 10000 nM (inactive)
- Ki [5]: 631 nM (active)
- Ki [6]: > 6310 nM (inactive)
- Ki [7]: > 1580 nM (inactive)
- Ki [8]: > 5010 nM (inactive)
- Ki [9]: 200 nM (active)
- Ki [10]: > 2510 nM (inactive)
- Ki [11]: 631 nM (active)
- Ki [12]: 251 nM (active)
- Ki [13]: > 7940 nM (inactive)
- Ki [14]: > 7940 nM (inactive)
- Ki [15]: 1580 nM (active)
- Ki [16]: > 5010 nM (inactive)
- Ki [17]: > 2510 nM (inactive)
- Ki [18]: > 2510 nM (inactive)
- Ki [19]: > 7940 nM (inactive)
- Ki [20]: > 1580 nM (inactive)
- Ki [21]: > 1580 nM (inactive)
- Ki [22]: > 3980 nM (inactive)
SMILES: COc1cc(Nc2ncc(F)c(Nc3ccc4c(n3)NC(=O)C(C)(C)O4)n2)cc(OC)c1OC [R-406]

Source: ChEMBL document CHEMBL1201862, “PubChem BioAssay data set” (2004)
